Assay [1] can be described thus: Inhibition of gamma-secretase expressed in CHO cells expressing wild type human recombinant APP assessed as reduction in amyloid beta40 production.
Another assay concerns CHO. Description: (§1) Inhibition of mouse notch expressed in CHO cells assessed as transactivation of soluble alkaline phosphatase reporter system. Format: cell-based.
The nature of assay [2]: as §1. It counts as cell-based.
Assay [3] can be described thus: Selectivity ratio of EC50 for gamma-secretase to EC50 for mouse notch.

pEC50: −log10 of the molar value.

In general, pEC50 refers to the EC50 on a negative log10 scale, so that one unit is a factor of ten. Take `CC[C@H](C)[C@@H](CO)NS(=O)(=O)c1ccc(C(C)=O)cc1`: the negative-log EC50 (pEC50) in assay [1] is 5.22.

In the case of `CC[C@H](C)[C@@H](CO)NS(=O)(=O)c1ccc(OC(F)(F)F)cc1`, the negative-log EC50 (pEC50) in assay [1] is 4.63.

Regarding `C[C@H](NC(=O)[C@@H](O)c1cc(F)cc(F)c1)C(=O)N[C@@H]1C(=O)N(C)N=Cc2ccccc21`, the Ratio EC50 with CHO worked out at 0.5. In assay [1], the pEC50 was 9.52.

In the case of `CC[C@H](C)[C@@H](CO)NS(=O)(=O)c1ccc(C#N)cc1`, in assay [1], the negative logarithm of the EC50 (pEC50) was less than 4.00.

As for `CC[C@H](C)[C@@H](CO)NS(=O)(=O)c1ccc(Cl)cc1`, the negative logarithm of the EC50 (pEC50) in assay [2] is 4.70; in assay [1] it was 5.26.

As for `O=S(=O)(N[C@H](CO)C1CCCCC1)c1ccc(Cl)cc1`, the pEC50 in assay [1] is 5.95.

For `CC(C)C[C@@H](CO)NS(=O)(=O)c1ccc(Cl)cc1`, in assay [1], the negative logarithm of the EC50 (pEC50) was 4.82.

As for `CC[C@H](C)[C@@H](CO)NS(=O)(=O)Nc1ccc(Cl)cc1`, in assay [1], the negative-log EC50 (pEC50) was less than 4.52.

Regarding `CC[C@H](C)[C@@H](CO)NS(=O)(=O)c1ccc(C(F)(F)F)cc1`, in assay [1], the pEC50 was 4.88.

For the compound `CC(C)[C@@H](CO)NS(=O)(=O)c1ccc(Cl)cc1`, the pEC50 in assay [1] is 5.34.

For the compound `CC[C@H](C)[C@@H](CO)NC(=O)Cc1ccc(Cl)cc1`, in assay [1], the pEC50 was less than 4.00.

On to `CC[C@H](C)[C@@H](CO)NS(=O)(=O)c1ccc(S(C)(=O)=O)cc1`, for which the negative-log EC50 (pEC50) in assay [1] is less than 4.00.

Turning to `CC(C)[C@H](O)C(=O)N[C@@H](C)C(=O)N[C@@H]1C(=O)N(C)CCc2ccccc21`, the pEC50 was 7.20 in assay [2] and 7.55 in assay [1].

For `CCC(CC)[C@@H](CO)NS(=O)(=O)c1ccc(Cl)cc1`, the pEC50 in assay [2] is 5.39; in assay [1], 6.53. Besides, the Ratio EC50 in assay [3] was found to be 13.9.

Consider `CC[C@H](C)[C@@H](CO)NS(=O)(=O)c1cccc(Cl)c1`, for which the pEC50 in assay [1] was 4.74.

Regarding `CC[C@H](C)[C@@H](CO)NS(=O)(=O)c1cc(Cl)cc(Cl)c1`, the pEC50 in assay [1] is 4.63.

Regarding `CC[C@H](C)[C@@H](CO)NCc1ccc(Cl)cc1`, the pEC50 in assay [1] was less than 4.00.

For the compound `CC[C@H](C)[C@@H](CO)NC(=O)Nc1ccc(Cl)cc1`, the negative-log EC50 (pEC50) in assay [1] was 4.33.

`CC[C@H](C)[C@H](NS(=O)(=O)c1ccc(Cl)cc1)C(C)(C)O`: the pEC50 in assay [1] was less than 4.00.

Take `CC[C@H](C)[C@@H](CO)NS(=O)(=O)c1ccccc1Cl`: the pEC50 in assay [1] was 4.25.

In the case of `O=S(=O)(N[C@H](CO)c1ccccc1)c1ccc(Cl)cc1`, in assay [1], the negative-log EC50 (pEC50) is 4.16.

Regarding `CC[C@H](C)[C@@H](CO)NS(=O)(=O)c1ccc([N+](=O)[O-])cc1`, in assay [1], the pEC50 was 4.68.

As for `CC[C@H](C)[C@@H](CO)NC(=O)c1ccc(Cl)cc1`, in assay [1], the pEC50 was less than 4.00.

For `CC[C@H](C)[C@@H](CO)NS(=O)(=O)c1ccc(Cl)c(Cl)c1`, the negative-log EC50 (pEC50) in assay [1] was 4.43.

For `CCOC(=O)N1CCC(c2ccccc2)(S(=O)(=O)c2ccc(Cl)cc2)CC1`, the results for the pEC50 in assay [2] and in assay [1] were 6.13 and 4.91, respectively. Also, the Ratio EC50 in assay [3] was determined as 8.8.

In the case of `CC(C)(C)[C@@H](CO)NS(=O)(=O)c1ccc(Cl)cc1`, the pEC50 in assay [1] was 4.54.

On to `C[C@@H](CO)NS(=O)(=O)c1ccc(Cl)cc1`, for which the negative logarithm of the EC50 (pEC50) in assay [1] was less than 4.00.

In the case of `CC[C@H](C)[C@@H](CO)NS(=O)(=O)c1ccc(Cl)c(F)c1`, in assay [1], the negative-log EC50 (pEC50) was 5.11.

For `C[C@H](c1ccc(F)cc1CCCC(=O)O)N(c1cc(F)ccc1F)S(=O)(=O)c1ccc(Cl)cc1`, the Ratio EC50 in assay [3] amounted to 15. Besides, the negative-log EC50 (pEC50) in assay [1] is 8.15.

For the compound `CC[C@H](C)[C@@H](CO)NS(=O)(=O)c1cc(Cl)ccc1Cl`, the pEC50 in assay [1] was 4.26.

Turning to `CC[C@@H](CO)NS(=O)(=O)c1ccc(Cl)cc1`, the negative logarithm of the EC50 (pEC50) in assay [1] was less than 4.00.

On to `CC[C@H](C)[C@@H](CO)NS(=O)(=O)c1ccc(C)cc1`, for which, in assay [1], the pEC50 is 4.84.

`CC[C@H](C)[C@@H](CO)NS(=O)(=O)c1ccc(F)cc1`: the pEC50 in assay [1] was 5.37.

Regarding `CC[C@H](C)[C@@H](CO)NS(=O)(=O)c1ccccc1`, in assay [1], the pEC50 was 5.38.

Turning to `CCCNC(=O)OC[C@@H](C)N(c1cc(Cl)ccc1CO)S(=O)(=O)c1ccc(Cl)cc1`, in assay [1], the negative-log EC50 (pEC50) is 7.07.

Regarding `CC[C@H](C)[C@H](NS(=O)(=O)c1ccc(Cl)cc1)C(=O)O`, the pEC50 in assay [1] is less than 4.00.

Consider `CC[C@@H](C)[C@@H](CO)NS(=O)(=O)c1ccc(Cl)cc1`, for which the pEC50 in assay [1] is 6.12.

As to `CC[C@H](C)[C@@H](CO)NS(=O)(=O)c1ccc(Br)cc1`, the negative-log EC50 (pEC50) is 4.70 in assay [2] and 5.65 in assay [1].

`CC[C@H](C)[C@@H](CO)NS(=O)(=O)c1cccc(Cl)c1Cl`: in assay [1], the pEC50 is 5.37.

With `CC[C@H](C)[C@H](NS(=O)(=O)c1ccc(Cl)cc1)C(C)O` (some centres undefined), the pEC50 in assay [1] was 4.31.

Values taken from ChEMBL document CHEMBL1155000, “Discovery of a novel series of Notch-sparing gamma-secretase inhibitors” (Bioorg Med Chem Lett, 2008).
